Assay results published in patent publication US7510836B2, “Alpha arteether resistance domain” (priority 2003, dated 2009).
Values after ≈ are worked out from the molar mass of the structure shown.

Columns and labels:
E. coli CA8000 = assay: Minimum inhibitory concentration (cross resistance); type: cell-based; details: Escherichia coli; strain CA8000
Text: (§1) The minimum inhibitory concentrations (MIC) of the quinolone and fluoroquinolone antibiotics were quantified for different strains and compared among each other. The differential response indicate the measure of resistance and sensitivity. Higher MIC indicate more resistance.

E. coli NK5819 [1] = assay: as above; type: cell-based; details: Escherichia coli; strain NK5819
Text: as §1

E. coli DH5a = assay: as above; type: cell-based; details: Escherichia coli; strain DH5a
Text: as §1

E. coli ET8000 [2] = assay: as above; type: cell-based; details: Escherichia coli; strain ET8000
Text: as §1

E. coli mutant CA8007 = assay: as above; type: cell-based; details: Escherichia coli; strain CA8007
Text: (§2) In order to develop an arteether resistant mutants from an arteether sensitive strains a reverse strategy was applied. Quinoline/fluoroquinolone (Q/FQs) resistant strains were developed spontaneously i.e. screening overnight log phase culture of the Quinolone/fluoroquinolone sensitive i.e. arteether resistant strain (E coli CA 8000) on the poison agar plate of the Q/FQs. The Q/FQ resistant mutants which appeared on the poison agar plates were first purified through single colony purification and then checked for their arteether sensitivity. These arteether sensitive mutants on the contrary when checked for their Q/Fqs resistance they show different level of Q/FQs resistance.
as §1

E. coli mutant CA8006 = assay: as above; type: cell-based; details: Escherichia coli; strain CA8006
Text: as §2, §1

E. coli mutant CA8009 = assay: as above; type: cell-based; details: Escherichia coli; strain CA8009
Text: as §2, §1

E. coli mutant CA8001 = assay: as above; type: cell-based; details: Escherichia coli; strain CA8001
Text: as §2, §1

E. coli mutant CA80012 = assay: as above; type: cell-based; details: Escherichia coli, read-out: minimum inhibitory concentration (MIC)
Text: as §2, §1

E. coli mutant CA8002 = assay: as above; type: cell-based; details: Escherichia coli; strain CA8002
Text: as §2, §1

E. coli mutant CA8003 = assay: as above; type: cell-based; details: Escherichia coli; strain CA8003
Text: as §2, §1

E. coli mutant CA80010 = assay: as above; type: cell-based; details: Escherichia coli, read-out: minimum inhibitory concentration (MIC)
Text: as §2, §1

E. coli mutant CA8005 = assay: as above; type: cell-based; details: Escherichia coli; strain CA8005
Text: as §2, §1

[3] = tested on: E. coli mutant strain Rev 6; assay: Phenotype of revertant (resistance or sensitivity); type: cell-based, Escherichia coli; parameters: key: R: resistance; S: sensitivity; details: gyrA GAT-GGT(242), Asp-Gly 81
Text: (§3) The strains of E coli of the investigation, their phenotypes in terms of a-arteether (resistance or sensitivity, superscript R or S) or antibiotic resistance or sensitivity, change in nucleotide position of the gyrase A gene leading to the phenotype, corresponding amino acid change in the protein and the position of amino acid change are being described. Always the phenotype a-arteether resistance is accompanied with quinolone or fluoroquinolone sensitivity and vice versa.
(§4) The commercially available strain E. coli DH5[…] (Stratagene, USA) is sensitive to […]-arteether but resistant to quinolone/fluoroquinolone due to a mutation at 87th aminoacid position of the gyr A protein (Aspartic acid of wild type is changed to Aspargine) with corresponding change in the codon GAC to AAC. This strain was used to screen […]-arteether resistant mutations. The observation was startling as the […]-arteether resistant mutants are the exact reversion at the 87th position of the aminoacid of gyrase A subunit i.e. Aspargine changed to aspartic acid, with corresponding change in the codon AAC to GAC.

[4] = tested on: E. coli mutant strain Rev. 1; assay: Phenotype of revertant (resistance or sensitivity); type: cell-based, Escherichia coli; parameters: key: R: resistance; S: sensitivity; details: gyrA GAT-GGT(242), Asp-Gly 81
Text: as §3, §4

[5] = tested on: E. coli mutant strain Rev 5; assay: Phenotype of revertant (resistance or sensitivity); type: cell-based, Escherichia coli; parameters: key: R: resistance; S: sensitivity; details: gyrA GAT-GGT(242), Asp-Gly 81
Text: as §3, §4

[6] = tested on: E. coli mutant strain Rev. 3; assay: Phenotype of revertant (resistance or sensitivity); type: cell-based, Escherichia coli; parameters: key: R: resistance; S: sensitivity; details: gyrA GAT-GGT(242), Asp-Gly 81
Text: as §3, §4

[7] = tested on: E. coli mutant strain Rev. 2; assay: Phenotype of revertant (resistance or sensitivity); type: cell-based, Escherichia coli; parameters: key: R: resistance; S: sensitivity; details: gyrA GAT-GGT(242), Asp-Gly 81
Text: as §3, §4

[8] = tested on: E. coli mutant strain Rev 4; assay: Phenotype of revertant (resistance or sensitivity); type: cell-based, Escherichia coli; parameters: key: R: resistance; S: sensitivity; details: gyrA GAT-GGT(242), Asp-Gly 81
Text: as §3, §4

E. coli CA8012 = assay: Phenotype of strain (resistance or sensitivity); type: cell-based, Escherichia coli; parameters: key: R: resistance; S: sensitivity; details: gyrA GGT-GAT(242), Gly-Asp 81
Text: as §2, §3

[9] = tested on: E. coli mutant strain AR 9 CA8014; assay: Phenotype of revertant (resistance or sensitivity); type: cell-based, Escherichia coli; parameters: key: R: resistance; S: sensitivity; details: gyrA AAC-GAC(259), Asn-Asp 87
Text: as §3, §4

E. coli DH5α = assay: Phenotype of strain (resistance or sensitivity); type: cell-based, Escherichia coli; parameters: key to Phenotype: R: resistance; S: sensitivity
Experimental: As a result of this mutation, the said strain is also resistant to a drug called nalidixic acid.
(§5) To ascertain the involvement of gyrA mutation, another E.coli strain NK 5819 which is also GyrA″ and nalidixic acid resistant was tested for arteether sensitivity. As expected, strain NK5819 was also sensitive only to a-isomer of arteether. […] The assays for arteether sensitivity was performed by the standard single disk diffusion method (Bauer et al, 1966). As a next step, we isolated gyrA mutants of E.coli strain CA 8000, which is otherwise Gyr+ and nalidixic acid sensitive. The gyrA mutants of CA8000 were isolated as nalidixic acid resistant colonies (20 ug/ml), after mutagenic treatment with NTG ([…]). The isolated CA8000 gyrA mutants were also sensitive only to a isomer of arteether. […] To define precisely the involvement of gyr genes only in the a-arteether sensitivity, we utilised two recombinant clones (pMK 90 and pMK47 containing functional gyr A and gyrB genes respectively) in trans-complementation assays. For this purpose, we mobilized the plasmid clones into the E.coli gyr mutant strains. The resulting transformants were now nalidixic acid sensitive and a-arteether resistant. This constituted the direct evidence supporting our observation that DNA gyrase enzyme alone is involved in conferring a-arteether sensitivity to E.coli strain. […] DNA gyrase enzyme is essential for the bacterial growth. This enzyme transiently breaks the DNA strands and introduces negative superhelical turns in an ATP-dependent process. The E.coli DNA gyrase enzyme is a tetramer with two subunits A and B. These two subunits are nalidixic acid and coumermycin sensitive respectively (U.S. Pat. No. 6,127,405 and a co-pending patent).
as §3

[10] = tested on: E.coli gyr mutant strains transformed with pMK 90 and pMK47 (functional gyr A and gyrB genes); assay: Trans-complementation assay; type: cell-based, Escherichia coli; details: gyr mutant strains carrying pMK 90 / pMK47
Experimental: as §5, with “This enzyme transiently breaks the DNA strands and introduces negative superhelical turns in an ATP-dependent process. The E.coli DNA gyrase enzyme is a tetramer with two subunits A and B. These two subunits are nalidixic acid and coumermycin sensitive respectively (U.S. Pat. No. 6,127,405 and a co-pending patent).” left out

E. coli ET8000 [11] = assay: Phenotype of strain (resistance or sensitivity); type: cell-based, Escherichia coli; parameters: key: R: resistance; S: sensitivity; details: gyrA GAC-AAC(259), Asp-Asn 87
Text: as §3

E. coli NK5819 [12] = assay: Phenotype of strain (resistance or sensitivity); type: cell-based, Escherichia coli; parameters: key to Phenotype: R: resistance; S: sensitivity
Experimental: as §5, §3

E. coli CA8007 = assay: Phenotype of strain (resistance or sensitivity); type: cell-based, Escherichia coli; parameters: key: R: resistance; S: sensitivity; details: gyrA TCG-TTG(248), Ser-Leu 83
Text: as §2, §3

E. coli CA8010 = assay: Phenotype of strain (resistance or sensitivity); type: cell-based, Escherichia coli; parameters: key: R: resistance; S: sensitivity; details: gyrA TCG-TTG(248), Ser-Leu 83
Text: as §2, §3

E. coli CA8006 = assay: Phenotype of strain (resistance or sensitivity); type: cell-based, Escherichia coli; parameters: key: R: resistance; S: sensitivity; details: gyrA TCG-TTG(248), Ser-Leu 83
Text: as §2, §3

E. coli CA8002 = assay: Phenotype of strain (resistance or sensitivity); type: cell-based, Escherichia coli; parameters: key: R: resistance; S: sensitivity; details: gyrA GGT-TGT(241), Gly-Cys 81
Text: as §2, §3

E. coli CA8005 = assay: Phenotype of strain (resistance or sensitivity); type: cell-based, Escherichia coli; parameters: key: R: resistance; S: sensitivity; details: gyrA GAC-GGC(260), Asp-Gly 87
Text: as §2, §3

E. coli CA8001 = assay: Phenotype of strain (resistance or sensitivity); type: cell-based, Escherichia coli; parameters: key: R: resistance; S: sensitivity; details: gyrA GGT-TGT(241), Gly-Cys 81
Text: as §2, §3

E. coli CA8003 = assay: Phenotype of strain (resistance or sensitivity); type: cell-based, Escherichia coli; parameters: key: R: resistance; S: sensitivity; details: gyrA GAC-GGC(260), Asp-Gly 87
Text: as §2, §3

E. coli CA8009 = assay: Phenotype of strain (resistance or sensitivity); type: cell-based, Escherichia coli; parameters: key: R: resistance; S: sensitivity; details: gyrA TCG-TTG(248), Ser-Leu 83
Text: as §2, §3

[13] = tested on: E.coli strain CA 8000 (Gyr+); assay: Phenotype of strain (resistance or sensitivity); type: cell-based, Escherichia coli; details: E.coli CA 8000 (Gyr+)
Experimental: as §5, with “This enzyme transiently breaks the DNA strands and introduces negative superhelical turns in an ATP-dependent process. The E.coli DNA gyrase enzyme is a tetramer with two subunits A and B. These two subunits are nalidixic acid and coumermycin sensitive respectively (U.S. Pat. No. 6,127,405 and a co-pending patent).” left out

SMILES	MIC (E. coli CA8000)	MIC (E. coli NK5819 [1])	MIC (E. coli DH5a)	MIC (E. coli ET8000 [2])	MIC (E. coli mutant CA8007)	MIC (E. coli mutant CA8006)	MIC (E. coli mutant CA8009)	MIC (E. coli mutant CA8001)	MIC (E. coli mutant CA80012)	MIC (E. coli mutant CA8002)	MIC (E. coli mutant CA8003)	MIC (E. coli mutant CA80010)	MIC (E. coli mutant CA8005)	further results
O=C(O)c1cn(C2CC2)c2cc(N3CCNCC3)c(F)cc2c1=O [Ciprofloxacin]	< 0.05 µg/mL	< 0.1 µg/mL	0.1 µg/mL (≈ 0.302 µM)	0.5 µg/mL (≈ 1.51 µM)	0.1 µg/mL (≈ 0.302 µM)	0.1 µg/mL (≈ 0.302 µM)	0.1 µg/mL (≈ 0.302 µM)	< 0.1 µg/mL	0.1 µg/mL (≈ 0.302 µM)	< 0.1 µg/mL	< 0.1 µg/mL	0.1 µg/mL (≈ 0.302 µM)	0.1 µg/mL (≈ 0.302 µM)	–
CCn1cc(C(=O)O)c(=O)c2cc(F)c(N3CCNC(C)C3)c(F)c21 (centres unmarked) [Lomefloxacin]	< 0.05 µg/mL	< 0.5 µg/mL	0.5 µg/mL (≈ 1.42 µM)	> 2 µg/mL	1.5 µg/mL (≈ 4.27 µM)	1.5 µg/mL (≈ 4.27 µM)	1.5 µg/mL (≈ 4.27 µM)	1.5 µg/mL (≈ 4.27 µM)	1.5 µg/mL (≈ 4.27 µM)	1.5 µg/mL (≈ 4.27 µM)	2.5 µg/mL (≈ 7.12 µM)	1.5 µg/mL (≈ 4.27 µM)	0.5 µg/mL (≈ 1.42 µM)	Phenotype [3]: S; Phenotype [4]: S; Phenotype [5]: S; Phenotype [6]: S; Phenotype [7]: S; Phenotype [8]: S; Phenotype (E. coli CA8012): R
CCn1cc(C(=O)O)c(=O)c2ccc(C)nc21 [Nalidixic acid]	2 µg/mL (≈ 8.61 µM)	20 µg/mL (≈ 86.1 µM)	50 µg/mL (≈ 215 µM)	100 µg/mL (≈ 431 µM)	100 µg/mL (≈ 431 µM)	150 µg/mL (≈ 646 µM)	100 µg/mL (≈ 431 µM)	150 µg/mL (≈ 646 µM)	100 µg/mL (≈ 431 µM)	150 µg/mL (≈ 646 µM)	150 µg/mL (≈ 646 µM)	100 µg/mL (≈ 431 µM)	150 µg/mL (≈ 646 µM)	Phenotype [9]: S; Phenotype (E. coli DH5α; DH5α, gyrA GAC-AAC(259), Asp-Asn 87): R; Sensitivity or resistance of the strain (words) (E. coli DH5α; E.coli DH5a (gyrA 96; Asp87Asn)): resistant; Sensitivity or resistance of transformants [10]: sensitive; Phenotype (E. coli ET8000 [11]): R; Sensitivity or resistance of the strain (words) (E. coli NK5819 [12]; E.coli NK 5819 (GyrA mutant)): resistant; Phenotype (E. coli NK5819 [12]; NK5819, gyrA GAC-TAC(259), Asp-Gly 87): R; Phenotype (E. coli CA8007): R; Phenotype (E. coli CA8010): R; Phenotype (E. coli CA8006): R; Phenotype (E. coli CA8002): R; Phenotype (E. coli CA8005): R; Phenotype (E. coli CA8001): R; Phenotype (E. coli CA8003): R; Phenotype (E. coli CA8009): R; Sensitivity or resistance of the strain (words) [13]: sensitive
